Tests used:
[1] = system: male C57BL/6J mice fed a high-fat diet; experiment: High-fat diet mouse experiment with D-psicose drinking water: body weight gain and fasting blood glucose; assay type: in vivo
Protocol: Eight-week-old (week 0) male C57BL/6J mice (total 4 groups, n=7) were fed a high-fat diet and tap water (control) or D-psicose-containing water, or antibiotics in addition to these (Control+Abx, D-psicose+Abx). During the experimental period, the body weight of the mice, the water intake, and the food intake were measured weekly, and the feces were collected. The samples at weeks 0 and 5 were used for analysis. The fasting blood glucose level was measured at week 9. The mice were dissected after 11 weeks.
(§1) The average (g) of the body weight gain at week 5 (13 weeks old) from start of rearing (8 weeks old) is shown (n =7). The error bars represent standard deviations (SDs). Control (white): high-fat diet+tap water, D-psicose (black): high-fat diet +5.0% D-psicose, Abx−: without antibiotic treatment, Abx+: with antibiotic treatment. The antibiotics were 0.1% ampicillin sodium, 0.1% neomycin sulfate, and 0.05% vancomycin hydrochloride. The Student's t-test was used in significance testing. A p-value of 0.05 or less is considered significant and indicated by*in the figure.
as §1, with “15-hour fasting blood glucose level (mg/dl)” for “average (g) of the body weight gain”, “9 after” for “5 (13 weeks old) from”, “rearing” for “rearing (8 weeks old)”, “(n=7).” for “(n =7).”
(§2) Twenty eight 6-week-old male C57BL/6J mice (CLEA Japan, Inc.) were provided and fed a normal diet CE-2 (CLEA Japan, Inc.) and tap water for 2 weeks, followed by acclimation. The mice were divided into 4 groups (7 mice per group): (i) tap water-administered group, (ii) D-psicose water-administered group, (iii) tap water and antibiotic-administered group, and (iv) D-psicose water and antibiotic-administered group. The experiment was started at 8 weeks old. For food, the mice in all groups were freely fed a high-fat diet HFD32 (CLEA Japan, Inc.). […] During the experimental period, the body weight of the mice, the water intake, and the food intake were measured weekly, and the feces were collected. […] At week 9 (17 weeks old) from the start of the experiment, the fasting blood glucose level, an indicator of diabetes, was measured. After 15-hour fasting, the side of the tail was pricked with a syringe needle (Terumo Corporation), and the blood glucose level was measured by using a glucometer (Nipro StatStrip XP3). […]

[2] = system: genus Atopobium (intestinal microbe, SEQ ID NO:1 OTU); experiment: 16S rRNA gene analysis of intestinal microbiota in fecal samples of D-psicose-administered mice; assay type: in vivo, mouse; conditions: 5.0% D-psicose water, high-fat diet, fecal samples at week 5, vs tap water control (FIG. 4)
Protocol: The relative abundance of the genus Atopobium in the fecal samples at week 5 from start of rearing is shown. The relative abundance is calculated as the percentage of the genus Atopobium in the total reads. Control (white): high-fat diet+tap water, D-psicose (black): high-fat diet +5.0% D-psicose. The Mann-Whitney U test was used in significance testing. A p-value of 0.001 or less is considered significant and indicated by P<0.001: in the figure.
as §2, with “old.” for “old. For food, the mice in all groups were freely fed a high-fat diet HFD32 (CLEA Japan, Inc.).”

For `O=C(CO)[C@H](O)[C@H](O)[C@H](O)CO` [D-psicose], the “body weight gain due to the intake of high-fat diet” value ([1]; 5.0% (w/v) D-psicose in drinking water, without antibiotic treatment, week 5, vs tap water control (FIG. 2)) was “significantly suppresses the body weight gain”, the “suppression of body weight gain” value ([1]; 5.0% D-psicose water plus antibiotics (0.1% ampicillin sodium, 0.1% neomycin sulfate, 0.05% vancomycin hydrochloride), intestinal microbes removed (FIG. 2)) was “not observed” and the “fasting blood glucose level, difference between groups” value ([1]; 5.0% D-psicose water plus antibiotics vs tap water plus antibiotics, 15-hour fasting, week 9 (FIG. 3)) was “no significant difference”. For the same compound, the “fasting blood glucose level” value ([1]; 5.0% D-psicose water, without antibiotics, 15-hour fasting, week 9, vs tap water control (FIG. 3)) was “significantly reduces the blood glucose level” and the “growth (relative abundance) of the intestinal microbe, genus Atopobium, in feces” value [2] was “significantly grows”.

Source: patent publication US20210128645A1, “INTESTINAL MICROBE HAVING D-PSICOSE-RESPONSIVE PROLIFERATION” (priority 2018, published 2021)
